# Measurements from the supplement of paper PMC10307832.
# Key:
# Experiment in all cases: relative viability (nuclei count vs DMSO), 5 days (fraction); higher = more cells survive
# Bleomycin = compound: CC1=C(N=C(N=C1N)[C@H](CC(=O)N)NC[C@@H](C(=O)N)N)C(=O)N[C@@H]([C@H](C2=CN=CN2)OC3C(C(C(C(O3)CO)O)O)OC4C(C(C(C(O4)CO)O)OC(=O)N)O)C(=O)N[C@H](C)[C@H]([C@H](C)C(=O)N[C@@H]([C@@H](C)O)C(=O)NCCC5=NC(=CS5)C6=NC(=CS6)C(=O)NCCC[S+](C)C)O [Bleomycin]; settings: main component drawn
# Procedure, shortened: (§1)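 Following overnight incubation at 37 °C, lung cancer cell lines in 1536-well plates were pinned with five library-drug doses (not always all listed) in √10 steps on vehicle-anchored plates. The cells then spent 5 days without medium change before a combined fix, permeabilisation and Hoechst stain, 4× imaging and MetaXpress nuclear counts. Viability is the treated-to-vehicle ratio of nuclei, taken as the median across plates. Only plates with control CV below 25% and at least one doubling passed.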
# Etoposide = compound: COc1cc([C@@H]2c3cc4c(cc3[C@@H](O[C@@H]3O[C@@H]5CO[C@@H](C)O[C@H]5[C@H](O)[C@H]3O)[C@H]3COC(=O)[C@H]23)OCO4)cc(OC)c1O [Etoposide]
# Procedure, shortened: as §1
# Bleomycin + Trametinib = compound: CC1=C(N=C(N=C1N)[C@H](CC(=O)N)NC[C@@H](C(=O)N)N)C(=O)N[C@@H]([C@H](C2=CN=CN2)OC3C(C(C(C(O3)CO)O)O)OC4C(C(C(C(O4)CO)O)OC(=O)N)O)C(=O)N[C@H](C)[C@H]([C@H](C)C(=O)N[C@@H]([C@@H](C)O)C(=O)NCCC5=NC(=CS5)C6=NC(=CS6)C(=O)NCCC[S+](C)C)O [Bleomycin] + CC(=O)Nc1cccc(-n2c(=O)n(C3CC3)c(=O)c3c(Nc4ccc(I)cc4F)n(C)c(=O)c(C)c32)c1 [Trametinib] (partner 0.02 µM); settings: main component drawn
# Procedure, shortened: (§2)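 Values are medians from duplicate plates. Each reflects relative viability, defined as the nuclei count of treated wells over that of vehicle wells. Lung cancer cell lines in 1536-well plates were pin-tool dosed one day after seeding with one drug alone or with a fixed anchor-drug dose plus five library-drug doses (not always all listed) in √10 steps, then fixed, stained and imaged at 4× after 5 days.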
# Etoposide + Navitoclax = compound: COc1cc([C@@H]2c3cc4c(cc3[C@@H](O[C@@H]3O[C@@H]5CO[C@@H](C)O[C@H]5[C@H](O)[C@H]3O)[C@H]3COC(=O)[C@H]23)OCO4)cc(OC)c1O [Etoposide] + CC1(C)CCC(c2ccc(Cl)cc2)=C(CN2CCN(c3ccc(C(=O)NS(=O)(=O)c4ccc(N[C@H](CCN5CCOCC5)CSc5ccccc5)c(S(=O)(=O)C(F)(F)F)c4)cc3)CC2)C1 [Navitoclax] (partner 0.5 µM)
# Procedure, shortened: as §2
Cell Line,relative viability (Bleomycin; 0.01 µM),relative viability (Bleomycin; 0.03162 µM),relative viability (Bleomycin; 0.1 µM),relative viability (Bleomycin; 0.3162 µM),relative viability (Bleomycin; 1 µM),relative viability (Etoposide; 0.01 µM),relative viability (Etoposide; 0.03162 µM),relative viability (Etoposide; 0.1 µM),relative viability (Etoposide; 0.3162 µM),relative viability (Etoposide; 1 µM),relative viability (Bleomycin + Trametinib; first compound 0.01 µM),relative viability (Bleomycin + Trametinib; first compound 0.03162 µM),relative viability (Bleomycin + Trametinib; first compound 0.1 µM),relative viability (Bleomycin + Trametinib; first compound 0.3162 µM),relative viability (Bleomycin + Trametinib; first compound 1 µM),relative viability (Etoposide + Navitoclax; first compound 0.01 µM),relative viability (Etoposide + Navitoclax; first compound 0.03162 µM),relative viability (Etoposide + Navitoclax; first compound 0.1 µM),relative viability (Etoposide + Navitoclax; first compound 0.3162 µM),relative viability (Etoposide + Navitoclax; first compound 1 µM)
NCI-H2228,0.902,1.01,0.899,0.559,0.311,0.926,1.1,0.7,0.582,0.195,0.537,0.468,0.431,0.269,0.26,0.842,0.934,0.849,0.473,0.138
NCI-H322M,0.861,1.02,0.928,0.568,0.54,0.947,1.05,0.822,0.838,0.52,0.477,0.524,0.479,0.385,0.504,1.29,1.37,1.01,0.886,0.574
NCI-H1975,0.746,0.714,0.589,0.289,0.226,0.842,1.07,0.817,0.809,0.402,0.326,0.284,0.327,0.226,0.152,1.09,1.33,1.06,0.701,0.468
NCI-H1944,0.53,0.481,0.397,0.232,0.184,0.973,1.13,0.729,0.522,0.273,0.319,0.255,0.276,0.234,0.165,1.11,1,0.63,0.593,0.3
LU99A,0.766,0.794,0.659,0.407,0.242,0.934,1.17,0.499,0.681,0.233,0.485,0.485,0.438,0.22,0.173,0.828,0.898,0.45,0.311,0.189
NCI-H2405,0.884,0.969,0.918,0.569,0.394,1.04,1.09,0.772,0.835,0.47,0.537,0.529,0.578,0.444,0.313,0.801,0.912,0.532,0.513,0.187
NCI-H2009,0.953,1.02,1.01,0.659,0.566,1.02,1.03,0.938,0.765,0.42,0.296,0.275,0.276,0.258,0.224,1.13,1.08,1.21,0.771,0.496
HCC-15,0.937,0.873,0.879,0.424,0.382,1.01,1.07,1,0.485,0.182,0.348,0.338,0.365,0.209,0.186,0.652,0.647,0.626,0.31,0.125
HCC-44,0.587,0.445,0.361,0.226,0.209,1.06,1.03,1.02,0.899,0.594,0.914,0.924,0.827,0.369,0.388,0.845,1.05,1.1,0.882,0.496
COR-L23,0.831,0.799,0.586,0.188,0.129,0.865,1.05,0.976,0.704,0.324,0.432,0.518,0.303,0.133,0.129,0.935,1.02,1.07,0.554,0.236
HCC-78,0.788,0.994,0.883,0.564,0.642,0.942,1.09,0.687,0.515,0.273,0.575,0.679,0.651,0.632,0.593,0.728,0.798,0.341,0.313,0.158
NCI-H838,0.692,0.436,0.301,0.229,0.213,0.963,1.03,0.719,0.773,0.351,0.432,0.246,0.186,0.154,0.118,1.09,1.14,1.19,0.705,0.338
NCI-H2126,0.961,1,1.03,0.758,0.714,0.977,1.05,0.63,0.859,0.441,0.525,0.583,0.594,0.52,0.508,0.893,0.917,0.49,0.769,0.448
BEN,0.94,0.943,0.973,0.638,0.742,0.932,0.986,–,1,0.913,1.03,0.959,1.05,0.863,0.849,0.0656,0.0585,–,0.057,0.0632
EKVX,0.928,0.898,0.797,0.374,0.321,0.998,1.01,0.637,0.741,0.377,0.396,0.298,0.301,0.196,0.158,0.892,0.983,0.759,0.446,0.251
LXF-289,0.94,0.972,0.912,0.539,0.231,1.05,1.04,1.13,0.878,0.311,0.599,0.664,0.634,0.459,0.2,0.977,0.971,0.984,0.605,0.174
NCI-H1650,0.584,0.394,0.243,0.179,0.195,0.897,0.903,0.739,0.38,0.161,0.325,0.257,0.244,0.138,0.135,1.25,1.19,0.885,0.353,0.309
NCI-H2085,0.925,0.913,0.83,0.56,0.515,0.926,1.01,0.903,0.868,0.507,0.549,0.514,0.384,0.243,0.226,1.16,1.06,1.11,0.67,0.354
NCI-H1793,0.817,0.772,0.754,0.293,0.226,0.813,1.12,–,0.758,0.334,0.442,0.413,0.382,0.262,0.194,0.382,0.564,–,0.387,0.324
LC-2-ad,0.756,0.726,0.549,0.262,0.192,0.974,1.07,0.837,0.718,0.261,0.736,0.674,0.541,0.291,0.243,0.586,0.446,0.405,0.276,0.183
COR-L 105,0.943,0.87,0.759,0.556,0.404,0.979,0.98,0.638,0.823,0.662,0.459,0.417,0.419,0.369,0.332,0.745,0.802,0.79,0.516,0.586
NCI-H1355,0.935,1.02,0.979,0.482,0.297,0.947,1.08,0.535,0.713,0.33,0.415,0.385,0.482,0.317,0.198,0.881,1.17,0.479,0.684,0.323
H3255,0.837,1.02,0.821,0.61,0.502,0.962,1.09,0.73,0.725,0.433,0.575,0.506,0.629,0.485,0.357,0.538,0.556,0.334,0.348,0.14
NCI-H1993,0.853,0.899,0.876,0.601,0.564,0.727,1.1,0.636,0.783,0.501,0.493,0.476,0.459,0.391,0.346,0.921,1.08,0.856,0.758,0.533
NCI-H1734,0.811,0.743,0.717,0.411,0.287,0.979,1.2,0.597,0.676,0.304,0.518,0.537,0.397,0.263,0.163,0.761,0.9,0.665,0.598,0.266
HOP-62,0.47,0.473,0.257,0.183,0.107,1.06,1.11,0.824,0.712,0.372,0.34,0.278,0.264,0.203,0.159,1.07,0.995,0.987,0.598,0.236
LOU-NH91,0.838,0.689,0.614,0.448,0.339,0.978,1.01,0.853,0.826,0.486,0.669,0.547,0.484,0.409,0.357,0.695,0.654,0.504,0.464,0.329
ChaGo-K-1,0.832,0.895,0.846,0.58,0.387,1.04,1.06,0.858,0.481,0.308,0.775,0.744,0.704,0.547,0.366,1.11,0.956,0.755,0.391,0.274
